Laboratory results reported in PubChem BioAssay (NCI).
Several values for one entry are separate records, joined by “and”; a condition that tells them apart may be missing. Equal values may be shown once.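 Results reflect a 48-hour exposure of cells in 96-well plates to compound at five concentrations. GI50 = concentration required for 50% inhibition of growth. TGI marks complete inhibition of growth.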

Legend:
Assay in all cases: NCI tumour cell line growth inhibition, 48 h
HCT-116 colon = system: HCT-116 colon
HS 578T breast = system: HS 578T breast
UO-31 renal = system: UO-31 renal
IGROV1 ovarian = system: IGROV1 ovarian
RXF 393 renal = system: RXF 393 renal
ACHN renal = system: ACHN renal
A549 NSCLC = system: A549 NSCLC
COLO 205 colon = system: COLO 205 colon
OVCAR-8 ovarian = system: OVCAR-8 ovarian
SR leukemia = system: SR leukemia

Row | SMILES | GI50 (HCT-116 colon) | TGI (HCT-116 colon) | GI50 (HS 578T breast) | TGI (HS 578T breast) | GI50 (UO-31 renal) | TGI (UO-31 renal) [µM] | GI50 (IGROV1 ovarian) | TGI (IGROV1 ovarian) [µM] | GI50 (RXF 393 renal) | TGI (RXF 393 renal) | GI50 (ACHN renal) | TGI (ACHN renal) [µM] | GI50 (A549 NSCLC) | TGI (A549 NSCLC) [µM] | GI50 (COLO 205 colon) | TGI (COLO 205 colon) | GI50 (OVCAR-8 ovarian) | TGI (OVCAR-8 ovarian) [µM] | GI50 (SR leukemia) | TGI (SR leukemia) [µM]
1 | COc1ccc(-c2nc3sccn3c2-c2ccnc(NCCCNS(=O)(=O)c3ccc(F)cc3)n2)cc1 | 3.19 µM | 24.4 µM | 3.22 µM | 9.03 µM | 1.85 µM | 5.17 | 3.27 µM | > 100 | 3.13 µM | 13.1 µM | 1.99 µM | 7.73 | 2.94 µM | > 100 | 1.89 µM | 8.15 µM | 1.57 µM | > 100 | 3.17 µM | > 100
2 | COc1ccc(/C=C2/CN(CCC#N)C/C(=C\c3ccc(OC)cc3)C2=O)cc1 | 0.829 µM | 2.38 µM | 2.98 µM | 64.4 µM | 1.74 µM | 4.86 | 2.77 µM | 8.26 | 1.7 µM | 3.29 µM | 2.06 µM | 4.48 | 2.92 µM | > 100 | 1.91 µM | 3.5 µM | 3.05 µM | > 100 | 1.07 µM | > 100
3 | OCc1ccc(N(Cc2ccc(F)cc2)CC2CCC2)cc1Cl | 1.85 µM | 11.5 µM | 17.3 µM | 40.3 µM | 8.3 µM | 21 | 0.755 µM | 4.05 | 6.07 µM | 18 µM | 13 µM | 26 | 8.49 µM | 22.4 | 13.5 µM | 26.6 µM | 14.7 µM | 32.4 | 11.7 µM | 29
4 | COc1cc(-c2nn(-c3cccc(NC(=O)CCN4CCN(C)CC4)c3)cc2-c2ccncc2)ccc1Cl | 0.904 µM | 4.17 µM | 1.41 µM | 6.39 µM | 1.38 µM | 3.91 | 2.37 µM | 15.6 | 1.09 µM | 2.77 µM | 1.61 µM | 10.7 | 1.4 µM | 4.9 | 1.09 µM | 2.47 µM | 2.77 µM | 12 | 0.471 µM | 2.64
5 | COc1cc(Cn2c(SCC(=O)Nc3ccc(Cl)cc3)nc3ccccc3c2=O)cc(OC)c1OC | 4.04 µM | 14.9 µM | 3.95 µM | 40.3 µM | 3.75 µM | 32.4 | 19 µM | 55.8 | 2.59 µM | 8.88 µM | 3.15 µM | 11.8 | 4.66 µM | 21.1 | 73.2 µM | > 100 µM | 4.82 µM | 16.1 | 18.5 µM | > 100
6 | COc1c2ccccc2c(O)c2c(=O)ccn(C)c12 | 3.13 µM | 13.1 µM | 12.2 µM | 61.5 µM | > 57.5 µM | > 100 | 30.9 µM | > 100 | 5.27 µM | 20.3 µM | 6.13 µM | 46.3 | 9.14 µM | > 67.3 | 7.7 µM | > 100 µM | 4.42 µM | 38.1 | 8.94 µM | 81.8
7 | CC[C@@]1(O)C(=O)NCc2c1cc1n(c2=O)Cc2cc3c(NC(C)=O)cccc3nc2-1 | > 100 µM | > 100 µM | > 100 µM | > 100 µM | > 100 µM | > 100 | > 100 µM | > 100 | > 100 µM | > 100 µM | > 100 µM | > 100 | > 100 µM | > 100 | > 100 µM | > 100 µM | > 100 µM | > 100 | > 100 µM | > 100
8 | CN1CCN(c2ccc(Nc3ncc4cc5n(c4n3)C3(CCCCC3)CNC5=O)nc2)CC1 | 1.81 µM | 11 µM | 1.71 µM | 8.8 µM | 0.67 µM | 12.9 | 2.42 µM | 16.4 | 1.32 µM | 3.71 µM | 0.847 µM | 12.6 | 1.47 µM | 16.2 | 0.0632 µM | 11.3 µM | 4.11 µM | 86.1 | 0.307 µM | 3.28
9 | O=c1[nH]c(SCc2ccccc2[N+](=O)[O-])nc2nc[nH]c12 | – | > 100 µM | – | > 100 µM | > 100 µM and 35.1 µM | > 100 | – | > 100 | – | > 100 µM | – | > 100 | – | > 100 | – | > 100 µM | – | > 100 | – | > 100
10 | CC(C)COC(c1ccc2c(c1)OCO2)C(C)Br (centres undefined) | – | 38.7 µM | – | 64.6 µM | – | 67.5 | – | > 100 | – | 23.2 µM | – | > 100 | – | > 100 | – | 49.7 µM | – | > 100 | – | 46.1
11 | COC1=CC2CCN3Cc4cc5c(cc4C(C1O)C23)OCC5 (centres undefined) | 1.68 µM | > 49.4 µM | 5.7 µM | > 32.7 µM | 5.88 µM | > 46.6 | 4.59 µM | > 24.8 | 2.74 µM | 16.7 µM | 0.306 µM | 2.31 | 1.26 µM | 8.19 | 0.513 µM | 1.92 µM | 3.75 µM | 37.3 | – | > 100
12 | Cn1cc(C2=C(c3c(S(C)=O)n(C)c4ccccc34)C(=O)NC2=O)c2ccccc21 (centres undefined) | 8.57 µM | > 25 µM | 5.57 µM | 24.9 µM | 3.89 µM | > 25 | 10.8 µM | > 25 | 5.42 µM | > 20.7 µM | 8.83 µM | > 25 | 9.24 µM | > 25 | 5.96 µM | > 18.6 µM | 12.3 µM | > 25 | 2.55 µM | 24.3
13 | Nc1ccc(C(=O)Nc2ccccc2N)cc1 | – | > 90.7 µM | – | > 100 µM | – | > 100 | – | > 100 | – | > 100 µM | – | > 100 | – | > 100 | – | 45.2 µM | – | > 100 | – | > 100
14 | CNCCNc1nc2ccccc2c2c(=O)c3cccc(C)c3sc12 | 0.818 µM | 1.57 µM | 5.07 µM | 14.2 µM | 0.79 µM | 7.12 | 1.29 µM | 8.06 | 3.08 µM | 9.72 µM | 1.7 µM | 7.11 | 1.82 µM | 7.5 | 0.921 µM | 1.92 µM | 1.94 µM | 7.65 | 0.94 µM | 2.51
15 | CNc1ncc2cc(-c3cc(NC(=O)NCCC(C)(C)C)c(F)cc3C)c(C)nc2n1 | 0.0805 µM and 0.0858 µM | 11.8 µM and > 10 µM | 0.839 µM and 0.582 µM | 33.5 µM and > 10 µM | 0.143 µM and 0.117 µM | > 67.7 | 0.179 µM and 0.151 µM | – | 1.01 µM and 0.504 µM | 5.99 µM and > 6.39 µM | 0.198 µM and 0.262 µM | > 24.6 | 0.754 µM and 0.598 µM | > 100 | < 0.0133 µM and 0.0135 µM | 1.38 µM and > 4.3 µM | 0.512 µM and 0.515 µM | > 100 | 0.811 µM and 3.13 µM | > 75.2
